In patent publication US9957298B2, “Peptides as oxytocin agonists” (Hoffmann-La Roche Inc., priority 2014, dated 2018):
Starred links: 1 amine or outer side, 2 acyl side, 3 side chain; linkers in the order of their positions; H or OH if unused. Positions of bridges follow the written chain, without caps; N, C: chain ends. Non-standard residues stand in square brackets, D forms with d. Residues, ends and D or L forms follow the SMILES beside them. Phg = N[C@H](C(=O)O)c1ccccc1; Suc = O=C(CCC(=O)[*:2])[*:1]; NcPrGly = O=C(O)CNC1CC1; Dap = NC[C@H](N)C(=O)O; Sar = CNCC(=O)O

How the values were obtained:
Format in all cases: cell-based
[1] = target: T1, human Oxytocin (OTR) receptor (Homo sapiens, UniProt P30559); experiment: Calcium flux assay (FLIPR), agonist mode, CHO cells expressing human oxytocin receptor; conditions: for EC50: CHO cells, human OTR, calcium flux FLIPR, read-out: hOT EC50; for Emax: CHO, maximum response normalized to endogenous full agonist = 100%, read-out: hOT efficacy (%)
T1 construct: expressed in transfected cells
T1 sequence (P30559 1-389): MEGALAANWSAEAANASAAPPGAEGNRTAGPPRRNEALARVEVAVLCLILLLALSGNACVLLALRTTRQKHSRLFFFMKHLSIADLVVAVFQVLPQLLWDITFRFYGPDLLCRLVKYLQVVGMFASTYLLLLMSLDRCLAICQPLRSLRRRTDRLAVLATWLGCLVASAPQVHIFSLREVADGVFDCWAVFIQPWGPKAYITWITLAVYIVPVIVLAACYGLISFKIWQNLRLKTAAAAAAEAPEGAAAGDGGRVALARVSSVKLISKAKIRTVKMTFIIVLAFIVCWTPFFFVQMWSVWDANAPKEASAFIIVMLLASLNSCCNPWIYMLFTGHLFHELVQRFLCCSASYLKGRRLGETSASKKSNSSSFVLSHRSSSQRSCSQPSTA

[2] = target: T2, human V1a receptor (Homo sapiens, UniProt P37288); experiment: Calcium flux assay (FLIPR), agonist mode, CHO cells expressing human V1a receptor; conditions: read-out: hV1a EC50
T2 construct: expressed in transfected cells
Excerpt: (§1) Chines Hamster Ovary (CHO) cells were transfected with expression plasmids encoding either the human V1a, the human Oxytocin (OTR) or the human V2 receptor, the later in combination with the chimeric Gqs5 G protein to redirect the signal to Calcium flux. Stable cells were cloned by limiting dilution to yield monoclonal cell lines expressing either human V1a, human V2+Gqs5 or human OTR receptors and selected based on functional responses detected on a fluorometric imaging plate reader (FLIPR) detecting Calcium flux in the cell after receptor activation. The stable cell lines were grown in F-12 K Nutrient Mixture (Kaighns Modification), containing 10% foetal bovine serum (FBS), 1% penicillin-streptomycin, 1% L-[…], 200 ug/ml Geneticin at 37° C. in a 10% CO2 incubator at 95% humidity.
(§2) On the afternoon before the assay, cells were plated at a density of 50,000 cells/well into black 96 well plates with clear bottoms to allow cell inspection and fluorescence measurements from the bottom of each well. The density of cells was sufficient to yield a confluent monolayer the next day. Hanks balanced salt solution, without phenol red, containing 20 mM HEPES (pH 7.3) and 2.5 mM probenecid (assay buffer) was prepared fresh for each experiment. Compound dilutions were made using a Beckman Biomek 2000 laboratory automation workstation, in assay buffer containing 1% DMSO. The dye-loading buffer consisted of a final concentration of 2 μM Fluo-4-AM (dissolved in DMSO and pluronic acid) in assay buffer. The existing culture media was removed from the wells and 100 μl of the dye-loading buffer was added to each well and incubated for approximately 60 min at 37° C. in a 5% CO2 incubator at 95% humidity. Once dye-loaded, the cells were washed thoroughly on an Embla cell washer with the assay buffer to remove any unincorporated dye. Exactly 100 μl assay buffer was left in each well.
(§3) Each 96 well plate containing dye-loaded cells was placed into the FLIPR machine and the laser intensity set to a suitable level to detect low basal fluorescence. To test compounds as agonists, 25 μl diluted compound was added to the plate 10 seconds into the fluorescent measurements and fluorescent response was recorded for 5 minutes. The fluorescence data was normalized to the endogenous full agonist dose-response set at 100% for the maximum response and 0% for the minimum. Each agonist concentration-response curve was constructed using a four parameter logistic equation with Microsoft Excel XLFit as follows: Y=Minimum+((Maximum−Minimum)/(1+10^(LogEC50-X)nH)), where y is the % normalized fluorescence, minimum is the minimum y, maximum is the maximum y, logEC50 is the log10 concentration which produces 50% of the maximum induced fluorescence, x is the log10 of the concentration of the agonist compound and H is the slope of the curve (the Hill Coefficient). The maximum value gives the efficacy of the agonist test compound in percentage. The concentration of agonist that produced a half-maximal response is represented by the EC50 value, the logarithm of which yielded the pEC50 value.

[3] = target: T3, human V2 receptor (Homo sapiens, UniProt P30518); experiment: Calcium flux assay (FLIPR), agonist mode, CHO cells expressing human V2 receptor + Gqs5; conditions: for EC50: CHO cells, human V2 + chimeric Gqs5, calcium flux FLIPR, read-out: hV2 EC50; for hV2 efficacy (%): maximum response normalized to endogenous full agonist = 100%
T3 construct: expressed in transfected cells
Excerpt: as §1, §2, §3

T3 sequence (P30518 whole entry): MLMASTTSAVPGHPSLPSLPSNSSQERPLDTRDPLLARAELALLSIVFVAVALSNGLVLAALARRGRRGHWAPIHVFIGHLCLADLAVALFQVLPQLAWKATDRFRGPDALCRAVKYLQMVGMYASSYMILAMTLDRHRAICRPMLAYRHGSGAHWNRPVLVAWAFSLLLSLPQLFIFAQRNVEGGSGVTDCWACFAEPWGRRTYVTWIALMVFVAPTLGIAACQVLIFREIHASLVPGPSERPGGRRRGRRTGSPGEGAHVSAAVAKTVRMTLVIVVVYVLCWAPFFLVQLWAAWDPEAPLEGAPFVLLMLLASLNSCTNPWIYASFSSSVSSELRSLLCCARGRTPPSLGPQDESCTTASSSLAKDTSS
T2 sequence (P37288 whole entry): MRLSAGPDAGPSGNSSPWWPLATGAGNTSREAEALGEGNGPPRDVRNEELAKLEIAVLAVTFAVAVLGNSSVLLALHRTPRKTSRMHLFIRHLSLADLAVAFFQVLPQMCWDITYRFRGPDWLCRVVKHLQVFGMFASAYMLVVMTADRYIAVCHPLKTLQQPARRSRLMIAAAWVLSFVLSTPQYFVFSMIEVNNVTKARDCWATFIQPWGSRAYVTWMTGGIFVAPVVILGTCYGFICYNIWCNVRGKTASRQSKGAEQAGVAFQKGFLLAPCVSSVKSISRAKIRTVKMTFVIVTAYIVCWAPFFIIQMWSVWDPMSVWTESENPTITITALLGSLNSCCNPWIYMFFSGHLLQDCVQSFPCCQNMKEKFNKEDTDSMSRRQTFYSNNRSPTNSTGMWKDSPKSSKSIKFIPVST

Structure (SMILES) | EC50 [1] | Emax [1] | EC50 [2] | EC50 [3] | hV2 efficacy (%) [3]
CC[C@H](C)[C@@H]1NC(=O)[C@H](Cc2ccc(O)cc2)NC(=O)CCC(=O)NC[C@@H](C(=O)N(C)CC(=O)N[C@H](C(=O)NCC(N)=O)c2ccccc2)NC(=O)[C@H](CC(N)=O)NC(=O)[C@H](CCC(N)=O)NC1=O [Example 37] (YIQN[Dap][Sar][Phg]G-NH2; linker N-5 via Suc) | 0.2 nM | 112% | > 27000 nM | 53 nM | 121%
CC[C@H](C)[C@@H]1NC(=O)[C@H](Cc2ccc(O)cc2)NC(=O)CCC(=O)NC[C@@H](C(=O)N(CC(=O)N[C@@H](CC(C)C)C(=O)NCC(N)=O)C2CC2)NC(=O)[C@H](CC(N)=O)NC(=O)[C@H](CCC(N)=O)NC1=O [Example 38] (YIQN[Dap][NcPrGly]LG-NH2; linker N-5 via Suc) | 0.38 nM | 126% | > 27000 nM | 626 nM | 146%
